From patent publication US20070276037A1, “Cytoprotective Effects of Ethyl Pyruvate” (priority 2003, published 2007)

Assays:
[1] = test system: left ventricular infarction; experiment: Planimetric determination of left ventricular infarction size (TTC/Evans blue); type: in vivo, rat; conditions: 30 minutes ischemia and 30 minutes reperfusion; n=15; mean ± SEM
[2] = test system: myocardial function; experiment: Cardiac function over the course of induced ischemia and reperfusion, percentage of baseline (FIGS. 5-7); type: in vivo; conditions: p<0.05
Description: In order to determine overall effects of ethyl pyruvate on cardiac function, a number of parameters were evaluated over the course of induced ischemia, and reperfusion, as a function of time.

[3] = test system: ischemic myocardium; experiment: Myocardial ATP levels (luciferin/luciferase bioluminescence) in acute in vivo ischemia-reperfusion model; design: species or system rat; conditions: n=5
[4] = test system: myocardial function; experiment: Cardiac functional assessment following ischemia and reperfusion (pressure/volume conductance catheter, flow probe); type: in vivo, rat
[5] = test system: ischemic and nonischemic myocardium; experiment: Myocardial lipid peroxidation measurements after ischemia and reperfusion; type: in vivo, rat
[6] = after 30 min ischemia / 30 min reperfusion, n=15
[7] = following ischemia and reperfusion, n=15, mean ± SEM, FIG. 8
[8] = 30 min ischemia / 30 min reperfusion, n=6, FIG. 2, mean ± SEM

Question: `CCOC(=O)C(C)=O` [ethyl pyruvate] was tested. Which “Left ventricular area at risk infarcted (infarction area/area at risk)” value [1] did it give?
Answer: 25.3%±1.5

Question: And the “dP/dtmax (contractility) as percentage of baseline, versus controls” value ([2]; after 8 minutes of ischemia and throughout reperfusion, FIG. 6)?
Answer: significantly greater

Question: And the “Maximum left ventricular (LV) pressure as percentage of baseline, versus controls” value ([2]; throughout ischemia and reperfusion, FIG. 5)?
Answer: significantly greater

Question: And the “Cardiac output as percentage of baseline, versus controls” value ([2]; throughout ischemia and reperfusion, FIG. 7)?
Answer: significantly greater

Question: What about the “ATP level in ischemic region of heart” value ([3]; 10 minutes after initiation of ischemia, 1.5 mL/kg iv bolus of 28 mmol/L ethyl pyruvate in Ringer's, mean ± SEM) of the same compound?
Answer: 87.6 ± 29.2 nmol/g

Question: And the “ATP levels versus controls” value ([3]; ischemic myocardium 10 minutes after initiation of ischemia, FIG. 1)?
Answer: Significantly higher levels of ATP

Question: And the “Myocardial function (end systolic pressure volume relationships) versus control animals” value ([4]; FIG. 8)?
Answer: significantly improved myocardial function

Question: What about the Cardiac output [4, 6] of the same compound?
Answer: 26.7 ± 0.9 mL/min

Question: And the Ejection fraction [4, 6]?
Answer: 41.9 ± 3.8%

Question: And the Heart rate [4, 6]?
Answer: 183 ± 9.5 bpm

Question: And the “Maximum dP/dt” value [4, 6]?
Answer: 3518 + 243 mm Hg/s

Question: And the Maximum pressure [4, 6]?
Answer: 86.6 ± 2.9 mm Hg

Question: And the “Minimum dP/dt” value [4, 6]?
Answer: 2841 + 329 mm Hg/s

Question: What about the ESPVR slope [4, 7] of the same compound?
Answer: 1.09±0.22

Question: What about the “ESPVR x-axis intercept (x-int)” value [4, 7] of the same compound?
Answer: 4.1±19.9

Question: What about the “Composite ESPVR” value ([4]; regression composite, n=15, FIG. 8) of the same compound?
Answer: 1.08 (ESV-4.0B)

Question: And the “Lipid peroxide level, ischemic myocardium” value [5, 8]?
Answer: 63.8 ± 3.3 nmol/g

Question: What about the “Lipid peroxide level, nonischemic myocardium” value [5, 8] of the same compound?
Answer: 42.3 ± 4.8 nmol/g

Question: What about the “Lipid peroxide level, ischemic myocardium” value ([5]; n=5, FIG. 3, mean ± SEM) of the same compound?
Answer: 70.4 ± 2.6 nmol/g

Question: What about the “Lipid peroxidation in ischemic myocardium versus control hearts” value ([5]; n=6, FIG. 2) of the same compound?
Answer: decreased the level of lipid peroxidation

Question: What about the “Lipid peroxidation in remote nonischemic myocardium versus control” value ([5]; n=6, FIG. 2) of the same compound?
Answer: equivalent
